{"source": "PubChem BioAssay AID624395", "about": "(The Scripps Research Institute Molecular Screening Center, 2012)", "tested_on": "cell-based VP16 transactivation luciferase luminescence", "assay": "VP16 transactivation luciferase reporter inhibitors, dose response, counter-screen for NR2E3 agonist project, cell-based, luminescence (AID 624395)", "note": "Activity calls are given as the source filed them. The rule behind the calls is not given here."}
{"smiles": "COc1ccc(S(=O)(=O)N2CCCCC2)cc1NC(=S)Nc1ccccc1", "values": [{"measurement": "IC50", "result": "> 39.8 µM (inactive)"}]}
{"smiles": "CCC1(OC(=O)CN)C(=O)OCc2c1cc1n(c2=O)Cc2cc3ccccc3nc2-1", "note": "(stereo not drawn)", "values": [{"measurement": "IC50", "result": 1.31, "unit": "µM"}]}
{"smiles": "C=C(C(=O)c1ccccc1)C(NC(C)(C)C)c1ccccc1", "note": "(stereo not drawn)", "values": [{"measurement": "IC50", "result": 5.27, "unit": "µM"}]}
{"smiles": "O=C(C1CC1)N1CCc2cc(Br)cc(S(=O)(=O)N3CCN(c4ccccn4)CC3)c21", "values": [{"measurement": "IC50", "result": "> 39.8 µM (inactive)"}]}
{"smiles": "N=C1SCC(=O)N1c1ncc(Cc2ccccc2Cl)s1", "values": [{"measurement": "IC50", "result": "10.5 µM (inactive)"}]}
{"smiles": "CN(C)c1ccc(/C=C/c2ccc3ccccc3[n+]2C)cc1", "values": [{"measurement": "IC50", "result": "13 µM (inactive)"}]}
{"smiles": "OC[C@@H]1CN(Cc2ccc(-c3ccccc3)cc2)C[C@H](n2cnc3c(NCc4ccncc4)ncnc32)O1", "values": [{"measurement": "IC50", "result": 4.44, "unit": "µM"}]}
{"smiles": "CCc1cc(OCCCSc2nc(C)cc(=O)[nH]2)ccc1Cl", "values": [{"measurement": "IC50", "result": 7.05, "unit": "µM"}]}
{"smiles": "O=C(CN1C(=O)C(c2ccc(F)cc2)=NC12CCCC2)Nc1ccc(F)cc1", "values": [{"measurement": "IC50", "result": 4.48, "unit": "µM"}]}
{"smiles": "COc1ccccc1-n1c(=O)oc2ccc(Cl)cc2c1=O", "values": [{"measurement": "IC50", "result": 7.67, "unit": "µM"}]}
{"smiles": "CC(Oc1ccc(Br)cc1)c1nc2c3ccccc3nc(=S)n2[nH]1", "note": "(stereo not drawn)", "values": [{"measurement": "IC50", "result": 4.33, "unit": "µM"}]}
{"smiles": "Cc1ccccc1Cn1nnc(C(=O)Nc2cccc(C)c2C)c1N", "values": [{"measurement": "IC50", "result": "18 µM (inactive)"}]}
{"smiles": "O=c1cc(C(F)(F)F)nc(SC/C=C/c2ccccc2)[nH]1", "values": [{"measurement": "IC50", "result": "13 µM (inactive)"}]}
{"smiles": "COc1ccc(C)cc1NC(=O)c1nnn(Cc2cccc(C(F)(F)F)c2)c1N", "values": [{"measurement": "IC50", "result": "> 39.8 µM (inactive)"}]}
{"smiles": "Brc1ccc(N/N=C(/N=Nc2nn[nH]n2)c2ccccc2)cc1", "values": [{"measurement": "IC50", "result": "12.8 µM (inactive)"}]}
{"smiles": "Cc1cc2sc3ccc(C#CC4(O)CCCCC4)cc3c(=O)c2cc1C", "values": [{"measurement": "IC50", "result": 0.00878, "unit": "µM"}]}
{"smiles": "Cc1cnc(NC(=O)Cc2ccc(Br)cc2)s1", "values": [{"measurement": "IC50", "result": "> 39.9 µM (inactive)"}]}
{"smiles": "COC(CNC(=O)CSCc1nc(-c2ccc(SC)cc2)oc1C)OC", "values": [{"measurement": "IC50", "result": 2.61, "unit": "µM"}]}
{"smiles": "N=C1SCC(=O)N1c1ncc(Cc2cccc(Cl)c2)s1", "values": [{"measurement": "IC50", "result": 4.78, "unit": "µM"}]}
{"smiles": "Cc1noc(C)c1S(=O)(=O)Nc1ccc(C(=O)N2CCN(c3ccc(Cl)cc3)CC2)cc1", "values": [{"measurement": "IC50", "result": 7.09, "unit": "µM"}]}
{"smiles": "Cc1cc(C(=O)CSc2nnc3ccccn23)c(C)n1-c1ccccc1", "values": [{"measurement": "IC50", "result": "25.7 µM (inactive)"}]}
{"smiles": "O=C(Nc1nnc(-c2cccs2)o1)c1cc(-c2ccccc2)nc2ccccc12", "values": [{"measurement": "IC50", "result": 3.45, "unit": "µM"}]}
{"smiles": "O=c1c(Cl)c(N2CCN(c3ccc(F)cc3)CC2)cnn1C12CC3CC(CC(C3)C1)C2", "values": [{"measurement": "IC50", "result": "38.2 µM (inactive)"}]}
{"smiles": "CC(C)c1ccc(C(c2c(O)c3ccccc3oc2=O)c2c(O)c3ccccc3oc2=O)cc1", "values": [{"measurement": "IC50", "result": "10.3 µM (inactive)"}]}
{"smiles": "c1coc(CNc2ncnc3ccccc23)c1", "values": [{"measurement": "IC50", "result": 4.45, "unit": "µM"}]}
{"smiles": "COc1cc2nc(CN3CC=C(c4ccccc4)CC3)[nH]c(=O)c2cc1OC", "values": [{"measurement": "IC50", "result": 1.91, "unit": "µM"}]}
{"smiles": "O=C(CSc1nnnn1-c1ccc2c(c1)OCCO2)Nc1nc2c(s1)CCCC2", "values": [{"measurement": "IC50", "result": "> 39.8 µM (inactive)"}]}
{"smiles": "CCNc1nc2c(c(=O)n(C)c(=O)n2C)n1Cc1ccc(Cl)cc1", "values": [{"measurement": "IC50", "result": 6.02, "unit": "µM"}]}
{"smiles": "c1ccc(CNc2ncnc3sccc23)cc1", "values": [{"measurement": "IC50", "result": 4.71, "unit": "µM"}]}
{"smiles": "CCCCOc1ccc(CONS(=O)(=O)c2ccc(NC(C)=O)cc2)cc1Cl", "values": [{"measurement": "IC50", "result": 4.03, "unit": "µM"}]}
{"smiles": "Nc1nc(N)nc(-c2cc(O)ccc2O)n1", "values": [{"measurement": "IC50", "result": 1.09, "unit": "µM"}]}
{"smiles": "O=c1cc(N2CCN(c3cccc(Cl)c3)CC2)[nH]c(=O)n1C1CCCCC1", "values": [{"measurement": "IC50", "result": "> 39.8 µM (inactive)"}]}
{"smiles": "COc1cc(OC)nc(-n2ncc(Br)c(Br)c2=O)n1", "values": [{"measurement": "IC50", "result": 4.91, "unit": "µM"}]}
{"smiles": "Cc1sc2ncnc(NCC(O)c3ccccc3)c2c1C", "note": "(stereo not drawn)", "values": [{"measurement": "IC50", "result": 4.74, "unit": "µM"}]}
{"smiles": "Cc1cc(C(=O)CSc2nc3ccccc3[nH]2)c(C)n1CC1CCCO1", "note": "(stereo not drawn)", "values": [{"measurement": "IC50", "result": 7.32, "unit": "µM"}]}
{"smiles": "COc1ccc(C)cc1NC(=O)NC1CC(=O)N(c2ccc3c(c2)OCCO3)C1", "note": "(stereo not drawn)", "values": [{"measurement": "IC50", "result": "20.3 µM (inactive)"}]}
{"smiles": "O=C(Nc1cccc(OC(F)(F)F)c1)C1Cc2c(-c3ccc4c(c3)OCO4)ccnc2O1", "note": "(stereo not drawn)", "values": [{"measurement": "IC50", "result": "14.4 µM (inactive)"}]}
{"smiles": "COc1ccc(NC(=O)c2sc(=O)n(Cc3cccc(C(F)(F)F)c3)c2C)cc1OC", "values": [{"measurement": "IC50", "result": "35.6 µM (inactive)"}]}
{"smiles": "CC(C)(C)c1ccc(CSc2nc(N)cc(=O)[nH]2)cc1", "values": [{"measurement": "IC50", "result": 4.53, "unit": "µM"}]}
{"smiles": "CN(CC(=O)Nc1ccccc1Cl)C(=O)c1cccc(S(=O)(=O)N2CCN(c3ccc(F)cc3)CC2)c1", "values": [{"measurement": "IC50", "result": 4.59, "unit": "µM"}]}
{"smiles": "CCC1(C)Cc2c(sc3[nH]c(=S)n(Cc4ccccc4)c(=O)c23)CO1", "note": "(stereo not drawn)", "values": [{"measurement": "IC50", "result": "12.1 µM (inactive)"}]}
{"smiles": "CCc1ccccc1Nc1nn2c(=O)c3ccc(C(=O)NCc4ccccn4)cc3nc2s1", "values": [{"measurement": "IC50", "result": "> 13.3 µM (inactive)"}]}
{"smiles": "CCCCCCCCCCCCN1[C@@H](CC(=O)O)c2cc(C(F)(F)F)ccc2S1(=O)=O", "values": [{"measurement": "IC50", "result": 8.1, "unit": "µM"}]}
{"smiles": "Cc1cnc(NC(=O)C2CC(=O)N(c3ccc4c(c3)OCCO4)C2)s1", "note": "(stereo not drawn)", "values": [{"measurement": "IC50", "result": "> 39.8 µM (inactive)"}]}
{"smiles": "COc1ccc(C(=O)c2c(C(F)(F)F)oc3c2C(=O)c2ccccc2C3=O)cc1OC", "values": [{"measurement": "IC50", "result": 1.68, "unit": "µM"}]}
{"smiles": "COCCCNC(=S)N1CCN(c2nc(-c3ccc(Cl)cc3)cs2)CC1", "values": [{"measurement": "IC50", "result": "10.6 µM (inactive)"}]}
{"smiles": "COc1cccc2c1C(=O)c1c(O)c3c(c(O)c1C2=O)CC(O)(C(C)=O)CC3OC1CC(N(C)C)C(O)C(C)O1", "note": "(stereo not drawn)", "values": [{"measurement": "IC50", "result": 3.21, "unit": "µM"}]}
{"smiles": "O=C(NC(=O)N1CCN(c2cccc(Cl)c2)CC1)c1ccc(Cl)cc1", "values": [{"measurement": "IC50", "result": 4.17, "unit": "µM"}]}
{"smiles": "O=C(COC(=O)c1cc([N+](=O)[O-])ccc1N1CCOCC1)Nc1ccc(Cl)cn1", "values": [{"measurement": "IC50", "result": "31.8 µM (inactive)"}]}
{"smiles": "CN1C2CCC1/C(=C/c1ccccn1)C(=O)/C2=C\\c1ccccn1", "values": [{"measurement": "IC50", "result": 4.5, "unit": "µM"}]}
{"smiles": "O=C(C(=Cc1ccccc1)CN1CCCCC1)c1ccccc1", "values": [{"measurement": "IC50", "result": 4.54, "unit": "µM"}]}
{"smiles": "CN1CCN(C(=O)c2cccc(-c3cnc4cnc(-c5ccccc5Oc5ccccc5)cn34)c2)CC1", "values": [{"measurement": "IC50", "result": "12.7 µM (inactive)"}]}
{"smiles": "Cc1ccc(S(=O)(=O)N2[C@@H](c3ccc(Cl)c(Cl)c3)C(C(=O)O)=C[C@H]2CC2CCCC2)cc1", "values": [{"measurement": "IC50", "result": "12 µM (inactive)"}]}
{"smiles": "CC(=O)c1c(O)cc(O)c(C(C)=O)c1O", "values": [{"measurement": "IC50", "result": 4.56, "unit": "µM"}]}
{"smiles": "Cc1cccc(NS(=O)(=O)c2ccc(-c3cnc(C4CC4)o3)cc2)c1C", "values": [{"measurement": "IC50", "result": 5.28, "unit": "µM"}]}
{"smiles": "Cc1cccc(OCCCC(=O)Nc2nc3ccccc3[nH]2)c1", "values": [{"measurement": "IC50", "result": "> 39.8 µM (inactive)"}]}
{"smiles": "CCOc1ccc(-c2nc(CSCC(=O)N3CCN(c4cccc(OC)c4)CC3)c(C)o2)cc1", "values": [{"measurement": "IC50", "result": 3.02, "unit": "µM"}]}
{"smiles": "CCCCCc1c(-c2ccc(OC)c(OC)c2)ncn1CCc1ccccc1OC", "values": [{"measurement": "IC50", "result": 7.74, "unit": "µM"}]}
{"smiles": "CCN(CC)S(=O)(=O)c1ccc(NC(=O)Nc2cccc(C(F)(F)F)c2)cc1", "values": [{"measurement": "IC50", "result": 7.08, "unit": "µM"}]}
{"smiles": "C[C@H]1CCC/C=C/[C@@H]2C[C@H](O)C[C@H]2[C@H](O)[C@H](S(=O)c2ccc(O)cc2)CC(=O)O1", "note": "(stereo partly drawn)", "values": [{"measurement": "IC50", "result": 3.52, "unit": "µM"}]}
{"smiles": "O=NN(CC(=O)NNc1ccccc1)CC(=O)NNc1ccccc1", "values": [{"measurement": "IC50", "result": "23.2 µM (inactive)"}]}
{"smiles": "O=c1cc(N2CCN(c3ccccc3)CC2)[nH]c(=O)n1C1CCCCC1", "values": [{"measurement": "IC50", "result": "> 39.8 µM (inactive)"}]}
{"smiles": "COc1cc2c(oc(=O)c3cc(C)cc(OC)c32)c2c(C3OC(C)C(O)C(C)(O)C3O)ccc(O)c12", "note": "(stereo not drawn)", "values": [{"measurement": "IC50", "result": 7.6, "unit": "µM"}]}
{"smiles": "CCCc1cc(=O)n2nc(N3CCC(C(=O)N4CCN(c5ccc(OC)cc5)CC4)CC3)sc2n1", "values": [{"measurement": "IC50", "result": 4.44, "unit": "µM"}]}
{"smiles": "Cc1cc(C)cc(NC(=O)CCc2nc3sc4c(c3c(=O)[nH]2)CCCC4)c1", "values": [{"measurement": "IC50", "result": "> 39.8 µM (inactive)"}]}
{"smiles": "Cc1onc(-c2ccccc2Cl)c1C(=O)Nc1nc2c(s1)CCCC2", "values": [{"measurement": "IC50", "result": "> 39.8 µM (inactive)"}]}
{"smiles": "CC(C)c1ccc(/C=C(\\c2nc3ccccc3[nH]2)S(=O)(=O)c2ccccc2)cc1", "values": [{"measurement": "IC50", "result": "13.2 µM (inactive)"}]}
{"smiles": "CC(=O)NC(c1cccs1)c1cc([N+](=O)[O-])c2cccnc2c1O", "note": "(stereo not drawn)", "values": [{"measurement": "IC50", "result": 5.77, "unit": "µM"}]}
